These results are taken from patent US7569225B2, “Immunogenic lipopeptides comprising T-helper and B-cell epitopes” (The Council of The Queensland Institute of Medical Research, priority 2002, dated 2009).

“And” between values parts separate entries of the source, which are not always exact repeats. Equal entries are not always repeated. “Also recorded” adds a separate entry of the source. Where two headings read alike, the source gives them in different places. Where no end group is shown, it is not given here. Pam3Cys = lipoamino acid of Formula (III) conjugated to the N-terminus; Pam2Cys = lipid of Formula (II)

Data set [1] can be described thus: Solubility of peptides and lipopeptides in saline (visual inspection). Type of data set: physicochemical. The note with it: for solubility / appearance of solution: visual inspection. On the procedure: FIG. 2 is a photographic representation showing the solubilities of lipopeptides designated [Th]-Lys(Pam2Cys-Ser-Ser)-[B] (left) and Pam2Cys-Ser-Ser-[Th]-[B] (right) in FIG. 1, wherein the polypeptide moieties have the amino acid sequences set forth in SEQ ID NO: 7 and SEQ ID NO: 5, respectively. Both solutions are approximately 1 mg/ml lipopeptide in saline solution.
Enhanced solubility was most evident in those cases where lipid was attached between the two epitopes at the approximate centre of the molecule. The lipopeptides designated [Th]-Lys(Pam2Cys)-[B] and [Th]-Lys(Pam3Cys)-[B] were soluble in saline at concentrations of at least 8 mg/ml (no higher concentrations were examined), whereas constructs in which lipid was attached to the N-terminus of the sequence formed opalescent solutions at concentrations as low as 0.25 mg/ml.
We considered that the insoluble nature of this construct would prevent it from being considered as a viable proposition for manufacture as a vaccine.

Data set [2] deals with female mice. Type of data set: in vivo, BALB/c mice. Particulars: for Pregnancy status (No. of animals per group that dropped litters): fertility experiment initiated two weeks after second dose; for Incidence of pregnancy 13 weeks after 2nd Dose / Incidence of pregnancy 2 weeks after 2nd Dose: 20 nmoles subcutaneously; for Incidence of pregnancy 13 weeks after 2nd Dose: animals per group of five; for Incidence of pregnancy 2 weeks after 2nd Dose: animals that dropped litters per group of five.

The subject of data set [3] is D1 cells. It counts as cell-based, BALB/c mouse.
Data set [4] concerns J14. The note with it: Quackenbush mice, 60 μg intranasally, three doses, eight days after final dose; versus control groups.
Method: Female outbred Quackenbush mice 4-6 weeks old (15/group) were inoculated intranasally with 60 μg of each peptide-based vaccine in a total volume of 30 μl PBS. Mice received three doses of vaccine at 21-day intervals. Eight days following the final dose saliva was collected from individual mice and the average J14-specific salivary IgA antibody titres were determined by standard ELISA.
Female outbred Quackenbush mice 4-6 weeks old (15/group) were inoculated intranasally with 60 μg of peptide-based vaccine in a total volume of 30 μl PBS. Mice received three doses of vaccine at 21-day intervals. […] Eight days following the final dose saliva was collected from individual mice and the average J14-specific salivary IgA antibody titres were determined by standard ELISA.
For data set [5], the system named is J14. The note with it: Quackenbush mice, 60 μg intranasally, three doses at 21-day intervals, seven days after final dose; versus control groups.
Method: The lipoamino acid moiety Pam2Cys-Ser-Ser was added to an internal lysine positioned between the T-helper epitope and the B-cell epitope in all lipopeptides tested. In the lipopeptide [Th]-Lys(Pam2Cys-Ser-Ser)-[J14], this is the only lipid moiety, whereas in the lipopeptide Pam2Cys-Ser-Ser-[Th]-Lys(Pam2Cys-Ser-Ser)-[J14], an additional lipoamino acid moiety Pam2Cys-Ser-Ser was added to the N-terminal amino group of the T-helper epitope. […] Seven days following the final dose mice were bled from the tail vein and J14-specific serum IgG was determined.
ELISA assays were carried out on serum samples as described essentially by Ghosh et al., Int Immun. […] The titres of antibody are expressed as the reciprocal of the highest dilution of serum to achieve an OD of 0.2, which represents approximately 5 times the background binding in the absence of antibody. The isotype of antibodies specific for LHRH or J14 was determined using rabbit antisera directed against mouse IgM, IgG1, IgG2a, IgG2b, IgG3 or IgA (ICN Pharmaceuticals Inc., Costa Mesa, Calif.) as previously described by Ghosh et al., Int Immun.
Female outbred Quackenbush mice 4-6 weeks old (15/group) were inoculated intranasally with 60 μg of peptide-based vaccine in a total volume of 30 μl PBS. […] Seven days following the final dose mice were bled from the tail vein and J14-specific serum IgG was determined.
Data set [6] relates to M1 GAS strain. The experiment in a line: Survival of inoculated mice after intranasal challenge with GAS. It counts as in vivo, Group A Streptococcus. The note with it: Quackenbush mice, challenge two weeks after last dose.
Method: Two weeks after the last dose of antigen, mice were challenged intranasally with M1 GAS strain and survival determined at various time points afterwards.
Female outbred Quackenbush mice 4-6 weeks old (15/group) were inoculated intranasally with 60 μg of peptide-based vaccine in a total volume of 30 μl PBS. Mice received three doses of vaccine at 21-day intervals. […] Two weeks after the last dose of antigen, mice were challenged intranasally with M1 GAS strain and survival determined at various time points afterwards.
Data set [7] deals with J14. The note with it: Quackenbush mice, 60 μg intranasally, three doses, 6 days after last dose.
Method: Female outbred Quackenbush mice 4-6 weeks old (15/group) were inoculated intranasally with 60 μg of peptide-based vaccine in a total volume of 30 μl PBS. Mice received three doses of vaccine at 21-day intervals. Fecal IgA was determined 6 days following the last dose of antigen.

Regarding `CCCCCCCCCCCCCCCC(=O)OCC(CSC[C@H](N)C(=O)N[C@@H](CO)C(=O)N[C@@H](CO)C(=O)NCC(=O)N[C@@H](C)C(=O)N[C@@H](CC(C)C)C(=O)N[C@@H](CC(N)=O)C(=O)N[C@@H](CC(N)=O)C(=O)N[C@@H](CCCNC(=N)N)C(=O)N[C@@H](Cc1ccccc1)C(=O)N[C@@H](CCC(N)=O)C(=O)N[C@H](C(=O)N[C@@H](CCCCN)C(=O)NCC(=O)N[C@H](C(=O)N[C@@H](CCC(=O)O)C(=O)N[C@@H](CC(C)C)C(=O)N[C@@H](CCCCN)C(=O)N[C@@H](CO)C(=O)N[C@@H](CCC(=O)O)C(=O)N[C@@H](Cc1c[nH]cn1)C(=O)N[C@@H](Cc1c[nH]c2ccccc12)C(=O)N[C@@H](CO)C(=O)N[C@@H](Cc1ccc(O)cc1)C(=O)NCC(=O)N[C@@H](CC(C)C)C(=O)N[C@@H](CCCNC(=N)N)C(=O)N1CCC[C@H]1C(=O)NCC(=O)O)C(C)C)[C@@H](C)CC)OC(=O)CCCCCCCCCCCCCCC` (stereo partly drawn) [Pam2Cys-Ser-Ser-[Th]—[B]], the “solubility / appearance of solution” value in data set [1] is “opalescent”.

Regarding `CCCCCCCCCCCCCCCC(=O)OCC(CSC[C@H](N)C(=O)NCCCC[C@H](NC(=O)[C@H](CO)NC(=O)[C@H](CCCCN)NC(=O)[C@H](CC(C)C)NC(=O)[C@H](CCC(=O)O)NC(=O)[C@@H](NC(=O)CNC(=O)[C@H](CCCCN)NC(=O)[C@@H](NC(=O)[C@H](CCC(N)=O)NC(=O)[C@H](Cc1ccccc1)NC(=O)[C@H](CCCNC(=N)N)NC(=O)[C@H](CC(N)=O)NC(=O)[C@H](CC(N)=O)NC(=O)[C@H](CC(C)C)NC(=O)[C@H](C)NC(=O)CN)[C@@H](C)CC)C(C)C)C(=O)N[C@@H](CCC(=O)O)C(=O)N[C@@H](Cc1c[nH]cn1)C(=O)N[C@@H](Cc1c[nH]c2ccccc12)C(=O)N[C@@H](CO)C(=O)N[C@@H](Cc1ccc(O)cc1)C(=O)NCC(=O)N[C@@H](CC(C)C)C(=O)N[C@@H](CCCNC(=N)N)C(=O)N1CCC[C@H]1C(=O)NCC(=O)O)OC(=O)CCCCCCCCCCCCCCC` (some centres unmarked) [[Th]-Lys(Pam2Cys)-[B]], the solubility in data set [1] (no higher concentrations were examined, read-out: soluble in saline at concentrations of at least) was no less than 8000 µg/mL.

For the compound `CCCCCCCCCCCCCCCC(=O)OCC(CSC[C@H](N)C(=O)N[C@@H](CO)C(=O)N[C@@H](CO)C(=O)NCCCC[C@H](NC(=O)[C@H](CO)NC(=O)[C@H](CCCCN)NC(=O)[C@H](CC(C)C)NC(=O)[C@H](CCC(=O)O)NC(=O)[C@@H](NC(=O)CNC(=O)[C@H](CCCCN)NC(=O)[C@@H](NC(=O)[C@H](CCC(N)=O)NC(=O)[C@H](Cc1ccccc1)NC(=O)[C@H](CCCNC(=N)N)NC(=O)[C@H](CC(N)=O)NC(=O)[C@H](CC(N)=O)NC(=O)[C@H](CC(C)C)NC(=O)[C@H](C)NC(=O)CN)[C@@H](C)CC)C(C)C)C(=O)N[C@@H](CCC(=O)O)C(=O)N[C@@H](Cc1c[nH]cn1)C(=O)N[C@@H](Cc1c[nH]c2ccccc12)C(=O)N[C@@H](CO)C(=O)N[C@@H](Cc1ccc(O)cc1)C(=O)NCC(=O)N[C@@H](CC(C)C)C(=O)N[C@@H](CCCNC(=N)N)C(=O)N1CCC[C@H]1C(=O)NCC(=O)O)OC(=O)CCCCCCCCCCCCCCC` (stereo partly drawn) [[Th]-Lys(Pam2Cys-Ser-Ser)-[B]], the “solubility / appearance of solution” value in data set [1] is given as “clear; also recorded: higher solubility”.

For GALNNRFQIKGVELKSEHWSYGLRPG [[Th]—[B]], the “Pregnancy status (No. of animals per group that dropped litters)” value is given as 3/5 in data set [2] (1 nmole, subcutaneous) and 1/5 in data set [2] (10 nmole, subcutaneous). For the same compound, the “Incidence of pregnancy 13 weeks after 2nd Dose” value (“Incidence of pregnancy 13 weeks” below) is 0/5 in data set [2] and “still infertile” in data set [2] (listed as [Th]-[B]). Also, the entries for the “Incidence of pregnancy 2 weeks after 2nd Dose” value (“Incidence of pregnancy 2 weeks” for short) in data set [2] and in data set [2] (listed as [Th]-[B]) were 0/5 and “None of the mice”, respectively. The “Pregnancy No. animals per group that dropped litters” value in data set [2] (subcutaneous, initiated two weeks after second dose) is reported as 0/5.

With “GALNNRFQIKGVELKSKEHWSYGLRPG [[Th]-Lys-[B]]”, in data set [2], the “Incidence of pregnancy 13 weeks” value is “still infertile and 0/5”; the “Incidence of pregnancy 2 weeks” value was “None of the mice and 0/5”. The D1 maturation rate entry in data set [3] is “about 26%”.

Turning to “Pam2Cys-[Th]—[B]: lipid of Formula (II) conjugated to the N-terminus of peptide [Th]-[B] (SEQ ID NO: 5) (Pam2Cys-GALNNRFQIKGVELKSEHWSYGLRPG)”, in data set [2], the “Incidence of pregnancy 13 weeks” value was 3/5 and the “Incidence of pregnancy 2 weeks” value was 2/5. Besides, in data set [2] (listed as Pam2Cys-[Th]-[B]), the “Incidence of pregnancy 2 weeks” value is “two animals”. For the same compound, the “ability to cause maturation of DC / up-regulate MHC class II expression (FIG. 5)” value in data set [3] is “least effective”.

As to “Pam3Cys-Ser-Ser-[Th]—[B]: lipoamino acid of Formula (III) conjugated to the N-terminus of peptide [Th]-[B] (SEQ ID NO: 5) (Pam3Cys-SSGALNNRFQIKGVELKSEHWSYGLRPG)”, the “Incidence of pregnancy 13 weeks” value in data set [2] is given as 0/5. Further, the “Incidence of pregnancy 2 weeks” value in data set [2] is reported as 2/5; in data set [2] (listed as Pam3Cys-Ser-Ser-[Th]-[B]), “two animals”. The “solubility / appearance of solution” value in data set [1] is reported as “so insoluble that it could not be purified by RP-HPLC”.

In the case of “[Th]-Lys(Pam2Cys-Ser-Ser)-[J14]: P25-Lys-J14 (SEQ ID NO: 106) with Pam2Cys-Ser-Ser on the internal lysine between the epitopes (KLIPNASLIENCTKAELKKQAEDKVKASREAKKQVEKALEQLEDKVK; not fully specified (residue 18); also: Pam2Cys-Ser-Ser on internal lysine between the epitopes (K18 or K19))”, in data set [4], the “J14-specific salivary IgA titres (FIG. 14)” value is recorded as “far superior”. Further, the “J14-specific serum IgG titres (FIG. 12)” value in data set [5] is on record as “significantly higher (P<0.05) serum IgG titres”. Also, the “survival following intranasal challenge with GAS (FIG. 16)” value in data set [6] is reported as “best survival”. Besides, the “faecal IgA titres (FIG. 15)” value in data set [7] was “significant (P<0.05) faecal IgA titres”.

“[Th]-[J14]: non-lipidated peptide of T-helper epitope P25 (SEQ ID NO: 24) and J14 (SEQ ID NO: 101) (KLIPNASLIENCTKAELKQAEDKVKASREAKKQVEKALEQLEDKVK)”: the “survival following intranasal challenge with GAS (FIG. 16)” value in data set [6] is “some protective immunity”.
